How the values were obtained:
CT26, colon carcinoma = assay: Tumor growth in CT26-injected Balb/c mice; type: in vivo; settings: 100 μg/mouse i.p.
Description: CT26, EL4 were maintained at 37° C. in a humidified 5% CO2 atmosphere in RPMA1640 medium supplemented with 20% (vol/vol) heat-inactivated fetal bovine serum. For animal experiments, the cells were passaged two to five times after re-growth from frozen stocks. Log phase CT26 cells were detached from tissue culture flasks with 0.25% trypsin and 0.03% EDTA. CT26 and EL4 were washed and resuspended in PBS immediately before injection.
In order to assess the antitumor effect of immuno-modulating peptide, Trp-Arg-Tyr-Met-Val-D-Met-CONH2, (WRYMVm; (SEQ ID NO: 4)), CT26, colon carcinoma was tested in Balb/c mice model. Tumor mass was measured in size every two days after 6 days from tumor cell inoculation.
To find the effective tumor-suppressing dose of WRYMVm, 0.1 μg/mouse, 0.25 μg/mouse, and 1 μg/mouse of WRYMVm were administered to CT26/Balb/c model. […] A similar phenomenon is easily found in chemotactic migration of leukocytes. In view of the fact that FPRL1, which is a target receptor for WRYMVm, is related to the chemotactic migration event, it is concluded that WRYMVm-induced antitumor effect might be derived from leukocyte infiltration event. Therefore, it is quite necessary to reveal the direct relationship between the WRYMVm-induced antitumor effect and the leukocyte infiltration event.

tumor = settings: survival rate, FIG. 12B
Description: Specific pathogen free male Balb/c mice and C57/BL6 mice were purchased from Hyo Chang Bioscience (Taegu, Korea). All mice were maintained under specific pathogen-free conditions in the animal facility of the Immunomodulation Research Center, University of Ulsan, Korea and used at 6-8 week of age. CT26 and EL4 were injected s.c. to Balb/c mice and C57/BL6 mice respectively, on day 0. WRYMVm (SEQ ID NO: 4) and CpG ODN were administered systemically (i.p.; 200 μl) from day six for every 4 days while a control group received PBS or 100 μg/mice for CpG ODN. Vincristine was administered via i.p. injection on the same days just before 8 hours from peptide or CpG ODN injection. On every 2 days after inoculation, tumor mass was measured using digital Varier calipers. Tumor volumes were calculated as [length×width×height×π/6]. The date of death is recorded as the date when mice spontaneously succumbed to tumor or were sacrificed because of a moribund state, or when the tumor width measured 20 mm (a width at which the tumor is not going to regress).
The results are expressed as the mean SE from the 10 mice/group. In the FIGS. 9 to 12, * indicates p<0.01 and ** indicates p<0.05 in comparison with values obtained from vehicle (PBS) treated control.
Therefore, i.p. 2 μg/mouse of vincristine was injected 8 hours prior to the peptide injection.

FPR [1] = biological target: T1, FPR (Homo sapiens, UniProt P21462); assay: ERK phosphorylation in FPR-expressing RBL-2H3 cells (immunoblot); type: cell-based; settings: pretreatment prior to 1 μM WKYMVm, PTX 100 ng/ml, LY294002 50 μM, GFX 5 μM, BAPTA/AM 10 μM, PD98059 50 μM
T1 construct: expressed in transfected cells; host or cells: RBL-2H3 (rat basophilic leukemia) cells, G418-selected
T1 sequence (P21462 1-350): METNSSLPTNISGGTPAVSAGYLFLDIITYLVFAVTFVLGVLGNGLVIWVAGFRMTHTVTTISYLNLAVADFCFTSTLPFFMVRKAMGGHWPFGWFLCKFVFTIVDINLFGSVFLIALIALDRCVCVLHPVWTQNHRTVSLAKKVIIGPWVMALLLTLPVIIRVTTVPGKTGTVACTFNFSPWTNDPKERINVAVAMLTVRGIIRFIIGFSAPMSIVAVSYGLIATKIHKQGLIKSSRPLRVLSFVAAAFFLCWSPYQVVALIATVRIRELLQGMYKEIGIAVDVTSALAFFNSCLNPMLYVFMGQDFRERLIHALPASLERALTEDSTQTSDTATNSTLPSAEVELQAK
Description: (§1) Cultured RBL-2H3 cells were aliquoted into 2×10^6 cells and stimulated with the indicated concentrations of WKYMVm and the peptides of the present invention for the indicated lengths of time. FPR- or FPRL1-expressing RBL-2H3 cells were stimulated with 1 μM WKYMVm for various periods of time (FIG. 3A). Two cells were preincubated with a vehicle or 100 ng/ml of PTX (24 hr), 50 μM of LY294002 (15 min), 5 μM of GFX (15 min), 10 μM BAPTA/AM (60 min), or 50 μM PD98059 (60 min) prior to 1 μM of WKYMVm treatment (FIG. 3B). FPR- or FPRL1-expressing RBL2H3 cells were stimulated with 10 μM of the peptides of the present invention for 2 min or 5 min, respectively (FIG. 3C).
(§2) After stimulation, the cells were washed with serum-free RPMI and lysed in a lysis buffer (20 mM Hepes, pH 7.2, 10% glycerol, 150 mM NaCl, 1% Triton X-100, 50 mM NaF, 1 mM Na3VO4, 10 μg/ml leupeptin, 10 μg/ml aprotinin, and 1 mM phenylmethylsulfonyl fluoride). The detergent-insoluble materials were pelleted by centrifugation (12,000×g, 15 min, at 4° C.), and the soluble supernatant fraction was removed and stored at −80° C. or used immediately. Protein concentrations in the lysates were determined using the Bradford protein assay reagent.
(§3) Each sample ([…] of protein) was subjected to 10% SDS-PAGE and phosphorylated ERK was determined by an immunoblot analysis with an anti-phospho-ERK antibody. Protein samples were prepared for electrophoresis by addition of a concentrated sample buffer. The portions in the samples were then separated by an 10% SDS-polyacrylamide gel using the buffer system described by Laemmli (17).
(§4) Following the electrophoresis, a western blot analysis with an anti-ERK2 antibody was performed to confirm that the same amounts of samples were used for the experiments. The proteins were blotted onto nitrocellulose membranes. The nitrocellulose membranes were then blocked by incubation with TBS (Tris-buffered saline, 0.05% Tween-20) containing 5% non-fat dry milk. Subsequently, the membranes were incubated with anti-phospho-ERK antibody, anti-phospho-Akt antibody or anti-Akt antibody washed with TBS. For a PKC translocation assay, an antibody for PKC isozyme-specific was incubated. Antigen-antibody complexes were visualized after incubating the membrane with a 1:5000 diluted goat anti-rabbit IgG or goat anti-mouse IgG antibody coupled to horseradish peroxidase and using the enhanced chemiluminescence detection system.

FPRL1 [2] = biological target: T2, FPRL1 (Homo sapiens, UniProt P25090); assay: ERK phosphorylation in FPRL1-expressing RBL-2H3 cells (immunoblot); type: cell-based; settings: pretreatment prior to 1 μM WKYMVm, PTX 100 ng/ml, LY294002 50 μM, GFX 5 μM, BAPTA/AM 10 μM, PD98059 50 μM
T2 construct: expressed in transfected cells; host or cells: RBL-2H3 (rat basophilic leukemia) cells, G418-selected
T2 sequence (P25090 1-351): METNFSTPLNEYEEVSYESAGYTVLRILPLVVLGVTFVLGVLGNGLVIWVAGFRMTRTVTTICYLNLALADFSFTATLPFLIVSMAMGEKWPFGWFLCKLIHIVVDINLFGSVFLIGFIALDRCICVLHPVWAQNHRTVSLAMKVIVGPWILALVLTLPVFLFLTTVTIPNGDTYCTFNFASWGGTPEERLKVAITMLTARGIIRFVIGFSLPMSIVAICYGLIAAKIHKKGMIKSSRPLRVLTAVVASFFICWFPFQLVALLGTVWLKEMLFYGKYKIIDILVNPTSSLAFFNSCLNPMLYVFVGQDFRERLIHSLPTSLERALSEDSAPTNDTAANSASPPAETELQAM
Description: as §1, §2, §3, §4

FPR [3] = biological target: T1, FPR; assay: Exocytosis: β-hexosaminidase secretion in FPR-expressing RBL-2H3 cells; type: cell-based; settings: FPR cells; 10 μM BAPTA/AM prior to 1 μM WKYMVm
Description: (§5) Granule secretion is one of the most important function of mast cells (20). The effect of WKYMVm on granule secretion was checked by measuring β-hexosaminidase secretion as described above (18). Briefly, RBL-2H3 cells (2×10^5/well) expressing FPR or FPRL1 were cultured overnight in a 24-well tissue culture plate. The cells were washed twice with Tyrode's buffer (137 mM NaCl, 12 mM NaHCO3, 5.6 mM glucose, 2.7 mM KCl, 1 mM CaCl2, 0.5 mM MgCl2, 0.4 mM NaH2PO4, 0.1g/100 ml BSA, and 25 mM HEPES, pH 7.4) and stimulated with each peptide. Various concentrations of WKYMVm were treated in FPR- or FPRL1-expressing RBL-2H3 cells (FIG. 5A). 1 μM of WKYMVm was used to stimulate two cell lines in the absence or presence of 10 μM BAPTA/AM (FIG. 5B). The reaction was terminated 20 min after stimulation by placing the plate on ice. Secretion of β-hexosaminidase into the medium was determined by incubating 50 μl of supernatant or cell lysate with 25 μl of 5 mM p-nitrophenyl-N-acetyl-β-D-glucosamide in 0.1 M sodium citrate buffer (pH 3.8) at 37° C. for 2 hr. At the end of the incubation, 50 μl of 0.4 M Na2CO3 were added. Absorbance was monitored at 405 nm. Data are means ±S.E. of a single representative of three experiments performed in triplicate. Values (means ±S.E.) were expressed as a percent of total β-hexosaminidase present in the cells.
From the new finding that cytosolic calcium release was induced by WKYMVm and many of the substituted peptides of WKYMVm but not by some of them (WKGMVm (SEQ ID NO: 1), WKRMVm (SEQ ID NO: 11), D-Met^6 substituted peptides), the effect of the peptides on granule secretion in RBL cells was checked. 10 μM of each peptide was treated in FPR- (FIG. 6A) or FPRL1-expressing RBL-2H3 cells (FIG. 6B). The peptide-induced secretion of β-hexosaminidase was determined as above. Data are means ±S.E. of a single representative of three experiments performed in triplicate.

FPRL1 [4] = biological target: T2, FPRL1; assay: Exocytosis: β-hexosaminidase secretion in FPRL1-expressing RBL-2H3 cells; type: cell-based; settings: FPRL1 cells; 10 μM BAPTA/AM prior to 1 μM WKYMVm
Description: as §5
10 μM of each peptide was treated in FPR- (FIG. 6A) or FPRL1-expressing RBL-2H3 cells (FIG. 6B). The peptide-induced secretion of β-hexosaminidase was determined as above. Data are means ±S.E. of a single representative of three experiments performed in triplicate.

FPR [5] = biological target: T1, FPR; assay: Chemotaxis of FPR-expressing RBL-2H3 cells (modified Boyden chamber); type: cell-based; settings: FPR cells; 50 μM LY294002 (15 min), 50 μM PD98059 (60 min); 1 μM WKYMVm
Description: (§6) Chemotaxis assays were performed using multiwell chambers (modified Boyden chamber assay) (Neuroprobe Inc., Gaithersburg, Md.) (18). Briefly, polycarbonate filters (8 μm pore size) were precoated with 50 μg/ml of rat type I collagen (Collaborative Biomedicals) in a HEPES-buffered RPMI 1640 medium. A dry coated filter was placed on a 96-well chamber containing different concentrations of peptides. RBL-2H3 cells expressing FPR or FPRL1 were suspended in RPMI at a concentration of 1×10^6 cells/ml of serum-free RPMI, and 25 μl of the suspension were placed onto the upper well of the 96-well chemotaxis chamber. After incubation for 4 hours at 37° C., non-migrated cells were removed by scraping them out, and cells that migrated across the filter were dehydrated, fixed, and stained with hematoxylin (Sigma, St. Louis, Mo.). The stained cells in five randomly chosen high power fields (HPF) (400×) in that well were then counted. […] The numbers of migrated cells were determined by counting them in a high power field (400×). The Data are presented as means ±SE of three independent experiments each performed in duplicate. The effect of the peptides of the present invention on cellular chemotaxis in FPR- or FPRL1-expressing RBL-2H3 cells was measured. Various concentrations of each peptide were used for the chemotaxis assay with FPR- or FPRL1-expressing RBL-2H3 cells. The numbers of migrated cells were determined by counting them in a high power field (400×). The Data are presented as means ±SE of two independent experiments each performed in duplicates.

FPRL1 [6] = biological target: T2, FPRL1; assay: Chemotaxis of FPRL1-expressing RBL-2H3 cells (modified Boyden chamber); type: cell-based; settings: FPRL1 cells; 50 μM LY294002 (15 min), 50 μM PD98059 (60 min); 1 μM WKYMVm
Description: as §6

Row | effect of inhibitor pretreatment on WKYMVm-induced cellular chemotaxis (FPR [5]) | effect of inhibitor pretreatment on WKYMVm-induced cellular chemotaxis (FPRL1 [6]) | Compound | effect on tumor growth (CT26, colon carcinoma) | survival (tumor) | effect of inhibitor pretreatment on WKYMVm-induced ERKs activation (FPR [1]) | effect of inhibitor pretreatment on WKYMVm-induced ERKs activation (FPRL1 [2]) | effect on WKYMVm-induced granule secretion (FPR [3]) | effect on WKYMVm-induced granule secretion (FPRL1 [4])
1 | – | – | 5′-TCGTCGTTTTGTCGTTTTGTCGTT-3′ [CpG ODN, reference compound] | didn't show any effect on tumor growth | failed to prevent death | – | – | – | –
2 | – | – | CC(=O)OCOC(=O)CN(CC(=O)OCOC(C)=O)c1ccccc1OCCOc1ccccc1N(CC(=O)OCOC(C)=O)CC(=O)OCOC(C)=O [BAPTA/AM] | – | – | could not effect WKYMVm-induced ERK activation | could not effect WKYMVm-induced ERK activation | almost completely inhibited WKYMVm-induced granule secretion | almost completely inhibited WKYMVm-induced granule secretion
3 | – | – | CN(C)CCCn1cc(C2=C(c3c[nH]c4ccccc34)C(=O)NC2=O)c2ccccc21 [GF109203X] | – | – | could not effect WKYMVm-induced ERK activation | could not effect WKYMVm-induced ERK activation | – | –
4 | sensitive | sensitive | COc1cccc(-c2cc(=O)c3ccccc3o2)c1N [PD98059, reference compound] | – | – | sensitive | sensitive | – | –
5 | – | – | Cn1cc(C2=C(c3cn(CCCSC(=N)N)c4ccccc34)C(=O)NC2=O)c2ccccc21 [Ro-31-8220] | – | – | could not effect WKYMVm-induced ERK activation | could not effect WKYMVm-induced ERK activation | – | –

Source: patent US7517857B2, “Immune-modulating peptide” (POSCO, priority 2002, dated 2009)
